Experimental data as given in ChEMBL document CHEMBL4619712, “Double-component diazeniumdiolate derivatives as anti-cancer agents” (Bioorg Med Chem, 2020).

Assays:
MDA-MB-231 = assay: Anticancer activity against human MDA-MB-231 cells assessed as inhibition of cell growth after 72 hrs by MTT or MTS assay; type: functional, cell-based; details: MDA-MB-231, 72 h
[1] = Prodrug conversion assessed as Escherichia coli GST catalyzed NO release at 1 uM measured after 5 hrs in presence of GSH by DAF-FM DA reagent based fluorescence spectrophotometric analysis; type: ADME
CCRF-CEM = assay: Anticancer activity against human CCRF-CEM cells assessed as inhibition of cell growth after 72 hrs by MTT or MTS assay; type: functional, cell-based
BT-474 = assay: Anticancer activity against human BT474 cells assessed as inhibition of cell growth after 72 hrs by MTT or MTS assay; type: functional, cell-based; details: BT-474, 72 h
Jurkat E6.1 = assay: Anticancer activity against human Jurkat E6-1 cells assessed as inhibition of cell growth after 72 hrs by MTT or MTS assay; type: functional, cell-based; details: Jurkat E6.1, 72 h
A549 = assay: Anticancer activity against human A549 cells assessed as inhibition of cell growth after 72 hrs by MTT or MTS assay; type: functional, cell-based; details: A549, 72 h

Compound: O=[N+]([O-])c1ccc(O/N=[N+](\[O-])N2CCN(CCCN3CCN(/[N+]([O-])=N/Oc4ccc([N+](=O)[O-])cc4[N+](=O)[O-])CC3)CC2)c([N+](=O)[O-])c1
- IC50 (MDA-MB-231): > 20 µM
- fold change (FC) [1]: 2
- IC50 (CCRF-CEM): 3.73 µM
- IC50 (BT-474): 10.8 µM
- IC50 (Jurkat E6.1): 4.06 µM
- IC50 (A549): 18.8 µM
